Starred links: 1 amine or outer side, 2 acyl side, 3 side chain; linkers in the order of their positions; H or OH if unused. Positions of bridges follow the written chain, without caps; N, C: chain ends. Non-standard residues stand in square brackets, D forms with d. Residues, ends and D or L forms follow the SMILES beside them. Groups on a side chain read outwards from the residue. ξ: configuration not given here. *: point of attachment. Dap(Nα-HOOC(CH2)16CO)OH = O=C(O)CCCCCCCCCCCCCCCCC(=O)N[C@@H](CN*)C(=O)O; X6 = O=C(O)CCCCCCCCCCCCCCCCC(=O)N[C@@H](CCC(=O)NCCCOCCOCCOCCCN*)C(=O)O; X18 = O=C(O)CCCCCCCCCCCCCCC(=O)N[C@@H](CC(=O)NCCCOCCOCCOCCCN*)C(=O)O; Trp(1-CH2COOH) = N[C@@H](Cc1cn(CC(=O)O)c2ccccc12)C(=O)O; X14 = O=C(O)CCCCCCCCCCNC(=O)CCC(=O)NCCCOCCOCCOCCCN*; γGlu = O=C(O)[C@H](CCC(=O)[*:2])N[*:1]; NH(CH2)12COOH = O=C(O)CCCCCCCCCCCCN*; X19 = O=C(C1C[C@H](O)CN1[*:1])[*:2]; ξPro(4R-OH) = O=C(O)C1C[C@@H](O)CN1; PEG6 = NCCOCCOCCOCCOCCOCCOCCC(=O)O; cisHyp = O=C(O)[C@@H]1C[C@H](O)CN1; Palmitoyl = CCCCCCCCCCCCCCCC(=O)*; Hyp = O=C(O)[C@@H]1C[C@@H](O)CN1; Myristoyl = CCCCCCCCCCCCCC(=O)*; NMeNle = CCCC[C@H](NC)C(=O)O; AEEEA = NCCOCCOCCOCC(=O)O; NMeA = CN[C@@H](C)C(=O)O; Pra = C#CC[C@H](N)C(=O)O; Aun = NCCCCCCCCCCC(=O)O; Dab = NCC[C@H](N)C(=O)O; Dap = NC[C@H](N)C(=O)O

T1 sequence (Q9NZQ7 with tags, fused parts or gaps): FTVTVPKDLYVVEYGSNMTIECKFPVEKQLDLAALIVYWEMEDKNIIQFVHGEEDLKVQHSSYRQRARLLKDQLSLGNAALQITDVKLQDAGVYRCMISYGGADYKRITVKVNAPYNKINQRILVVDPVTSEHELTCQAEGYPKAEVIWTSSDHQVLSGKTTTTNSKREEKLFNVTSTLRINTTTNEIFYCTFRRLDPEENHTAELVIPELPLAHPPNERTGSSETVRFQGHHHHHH

This assay concerns the target T1, PD-L1 (Homo sapiens, UniProt Q9NZQ7).
T1 construct: hPDL1(19-239)-TVMV-His; made in house; host or cells: HEK293T
The assay can be described thus: PD-1/PD-L1 Homogenous Time-Resolved Fluorescence (HTRF) binding assay (PD-1-Ig/PD-L1-His). Conditions: inhibition of PD-1-Ig binding to PD-L1-TVMV-His; value given as range class; read-out: HTRF IC50. Summed up:
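Inhibitors pre-incubated 15 min with PD-L1-His (10 nM final), then PD-1-Ig (20 nM final) added for 15 min in dPBS/0.1% BSA/0.05% Tween-20. Eu-cryptate anti-Ig (1 nM) and APC anti-His (20 nM) added, 30 min equilibration, 665/620 nm HTRF ratio read.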
Turning to `C#CC[C@H](NC(=O)CNC(=O)[C@@H]1CSCC(=O)N[C@@H](Cc2ccc(O)cc2)C(=O)N(C)[C@@H](C)C(=O)N[C@@H](CC(=O)O)C(=O)N2CCC[C@H]2C(=O)N[C@@H](Cc2c[nH]cn2)C(=O)N[C@@H](CCCCN)C(=O)N2C[C@H](O)C[C@H]2C(=O)N[C@@H](Cc2c[nH]c3ccccc23)C(=O)N[C@@H](CCCCN)C(=O)N[C@@H](Cc2cn(CC(=O)O)c3ccccc23)C(=O)N(C)[C@@H](CCCC)C(=O)N(C)[C@@H](CCCC)C(=O)N[C@@H](CCC(=O)O)C(=O)N1)C(=O)N[C@@H](CC(=O)O)C(N)=O` [INT 1400E] ({CH2CO}-Y[NMeA]DPHK[Hyp]WK[Trp(1-CH2COOH)][NMeNle][NMeNle]ECG[Pra]D-NH2; thioether N-14), the half-inhibitory concentration (IC50) fell in the range of 0.3 to 9.9 nM.
Under `CCCCCCCCCCCCCCCC(=O)NCCCC[C@H](NC(=O)CNC(=O)[C@@H]1CSCC(=O)N[C@@H](Cc2ccc(O)cc2)C(=O)N(C)[C@@H](C)C(=O)N[C@@H](CC(N)=O)C(=O)N2CCC[C@H]2C(=O)N[C@@H](CCN)C(=O)N[C@@H](CC(C)C)C(=O)N2C[C@H](O)C[C@H]2C(=O)N[C@@H](Cc2c[nH]c3ccccc23)C(=O)N[C@@H](CO)C(=O)N[C@@H](Cc2c[nH]c3ccccc23)C(=O)N(C)[C@@H](CCCC)C(=O)N(C)[C@@H](CCCC)C(=O)N[C@@H](CCCNC(=N)N)C(=O)N1)C(N)=O` [Example 11020] ({CH2CO}-Y[NMeA]NP[Dab]L[Hyp]WSW[NMeNle][NMeNle]RCGK(Palmitoyl)-NH2; thioether N-14) stands 100 to 1600 nM; under `CCCC[C@H]1C(=O)N(C)[C@@H](CCCC)C(=O)N[C@@H](CC(C)C)C(=O)N[C@H](C(=O)NCCCOCCOCCOCCCNC(=O)CCC(=O)NCCCCCCCCCCC(=O)O)CSCC(=O)N[C@@H](Cc2ccc(O)cc2)C(=O)N(C)[C@@H](C)C(=O)N[C@@H](CC(N)=O)C(=O)N2CCC[C@H]2C(=O)N[C@@H](Cc2cnc[nH]2)C(=O)N[C@@H](CCC(=O)O)C(=O)N2C[C@H](O)C[C@H]2C(=O)N[C@@H](Cc2c[nH]c3ccccc23)C(=O)N[C@@H](CO)C(=O)N[C@@H](Cc2c[nH]c3ccccc23)C(=O)N1C` [Example 11073] ({CH2CO}-Y[NMeA]NPHE[Hyp]WSW[NMeNle][NMeNle]LC-X14; thioether N-14), 10 to 99 nM; under `CCCC[C@H]1C(=O)N(C)[C@@H](CCCC)C(=O)N[C@@H](CC(C)C)C(=O)N[C@H](C(=O)NCC(=O)N[C@@H](CC(=O)O)C(=O)NCCCOCCOCCOCCCNC(=O)CC[C@H](NC(=O)CCCCCCCCCCCCCCCCC(=O)O)C(=O)O)CSCC(=O)N[C@@H](Cc2ccc(O)cc2)C(=O)N(C)[C@@H](C)C(=O)N[C@@H](CC(N)=O)C(=O)N2CCC[C@H]2C(=O)N[C@@H](CN)C(=O)N[C@@H](CC(C)C)C(=O)N2C[C@H](O)C[C@H]2C(=O)N[C@@H](Cc2c[nH]c3ccccc23)C(=O)N[C@@H](CCN)C(=O)N[C@@H](Cc2cn(CC(=O)O)c3ccccc23)C(=O)N1C` [Example 11224] ({CH2CO}-Y[NMeA]NP[Dap]L[Hyp]W[Dab][Trp(1-CH2COOH)][NMeNle][NMeNle]LCGD-X6; thioether N-14), 0.3 to 9.9 nM.
Take `CCCCCCCCCCCCCC(=O)N[C@@H](CCC(=O)NCCCC[C@H](NC(=O)[C@H](CC(=O)O)NC(=O)CNC(=O)CNC(=O)[C@@H]1CSCC(=O)N[C@@H](Cc2ccc(O)cc2)C(=O)N(C)[C@@H](C)C(=O)N[C@@H](CC(=O)O)C(=O)N2CCC[C@H]2C(=O)N[C@@H](Cc2cnc[nH]2)C(=O)N[C@@H](CC(C)C)C(=O)N2C[C@H](O)C[C@H]2C(=O)N[C@@H](Cc2c[nH]c3ccccc23)C(=O)N[C@@H](CO)C(=O)N[C@@H](Cc2c[nH]c3ccccc23)C(=O)N(C)[C@@H](CCCC)C(=O)N(C)[C@@H](CCCC)C(=O)N[C@@H](CCCNC(=N)N)C(=O)N1)C(N)=O)C(=O)O` [Example 11123] ({CH2CO}-Y[NMeA]DPHL[Hyp]WSW[NMeNle][NMeNle]RCGGDK([γGlu-Myristoyl])-NH2; thioether N-14): the IC50 lay within 10 to 99 nM.
For the compound `CCCC[C@H]1C(=O)N(C)[C@@H](CCCC)C(=O)N[C@@H](CC(C)C)C(=O)C[C@H](C(=O)NCC(=O)N[C@@H](CCC(=O)O)C(=O)NCCCOCCOCCOCCCNC(=O)CC[C@H](NC(=O)CCCCCCCCCCCCCCCCC(=O)O)C(=O)O)CSCC(=O)N[C@@H](Cc2ccc(O)cc2)C(=O)N(C)[C@@H](C)C(=O)N[C@@H](CC(N)=O)C(=O)N2CCC[C@H]2C(=O)N[C@@H](CN)C(=O)N[C@@H](CC(C)C)C(=O)N2C[C@H](O)C[C@H]2C(=O)N[C@@H](Cc2c[nH]c3ccccc23)C(=O)N[C@@H](CCN)C(=O)N[C@@H](Cc2cn(CC(=O)O)c3ccccc23)C(=O)N1C` [Example 11167], the IC50 was 0.3 to 9.9 nM.
Then `CCCCCCCCCCCCCCCCNC(=O)CCCCCCCCCCNC(=O)[C@@H]1CSCC(=O)N[C@@H](Cc2ccc(O)cc2)C(=O)N(C)[C@@H](C)C(=O)N[C@@H](CC(N)=O)C(=O)N2CCC[C@H]2C(=O)N[C@@H](Cc2cnc[nH]2)C(=O)N[C@@H](CC(C)C)C(=O)N2C[C@H](O)C[C@H]2C(=O)N[C@@H](Cc2c[nH]c3ccccc23)C(=O)N[C@@H](CO)C(=O)N[C@@H](Cc2c[nH]c3ccccc23)C(=O)N(C)[C@@H](CCCC)C(=O)N(C)[C@@H](CCCC)C(=O)N[C@@H](CCCNC(=N)N)C(=O)N1` [Example 11115], with 100 to 1600 nM; and `CCCC[C@H]1C(=O)N(C)[C@@H](CCCC)C(=O)N[C@@H](CC(C)C)C(=O)N[C@H](C(=O)NCCCCCCCCCCCCC(=O)O)CSCC(=O)N[C@@H](Cc2ccc(O)cc2)C(=O)N(C)[C@@H](C)C(=O)N[C@@H](CC(N)=O)C(=O)N2CCC[C@@H]2C(=O)N[C@@H](CN)C(=O)N[C@@H](CC(C)C)C(=O)N2C[C@@H](O)C[C@H]2C(=O)N[C@@H](Cc2c[nH]c3ccccc23)C(=O)N[C@@H](CCN)C(=O)N[C@@H](Cc2cn(CC(=O)O)c3ccccc23)C(=O)N1C` [Example 11204] ({CH2CO}-Y[NMeA]N[dP][Dap]L[cisHyp]W[Dab][Trp(1-CH2COOH)][NMeNle][NMeNle]LC-{NH(CH2)12COOH}; thioether N-14), with 10 to 99 nM.
As to `CCCCCCCCCCCCCC(=O)N[C@@H](CCC(=O)NCCCC[C@H](NC(=O)CNC(=O)CNC(=O)CNC(=O)[C@@H]1CSCC(=O)N[C@@H](Cc2ccc(O)cc2)C(=O)N(C)[C@@H](C)C(=O)N[C@@H](CC(N)=O)C(=O)N2CCC[C@H]2C(=O)N[C@@H](Cc2cnc[nH]2)C(=O)N[C@@H](CC(C)C)C(=O)N2C[C@H](O)C[C@H]2C(=O)N[C@@H](Cc2c[nH]c3ccccc23)C(=O)N[C@@H](CO)C(=O)N[C@@H](Cc2c[nH]c3ccccc23)C(=O)N(C)[C@@H](CCCC)C(=O)N(C)[C@@H](CCCC)C(=O)N[C@@H](CCCNC(=N)N)C(=O)N1)C(N)=O)C(=O)O` [Example 11116] ({CH2CO}-Y[NMeA]NPHL[Hyp]WSW[NMeNle][NMeNle]RCGGGK([γGlu-Myristoyl])-NH2; thioether N-14), the IC50 lay within 10 to 99 nM.
Take `CCCC[C@H]1C(=O)N(C)[C@@H](CCCC)C(=O)N[C@@H](CC(C)C)C(=O)N[C@@H](C(=O)N[C@@H](CC(=O)O)C(=O)N[C@@H](CC(=O)NCCCOCCOCCOCCCNC(=O)C[C@H](NC(=O)CCCCCCCCCCCCCCC(=O)O)C(=O)O)C(=O)O)CSCC(=O)N[C@@H](Cc2ccc(O)cc2)C(=O)N(C)[C@@H](C)C(=O)N[C@@H](CC(N)=O)C(=O)N2CCC[C@@H]2C(=O)N[C@@H](CN)C(=O)N[C@@H](CC(C)C)C(=O)N2C[C@@H](O)CC2C(=O)N[C@@H](Cc2c[nH]c3ccccc23)C(=O)N[C@@H](CCN)C(=O)N[C@@H](Cc2cn(CC(=O)O)c3ccccc23)C(=O)N1C` (stereo partly shown) [Example 11244] ({CH2CO}-Y[NMeA]N[dP][Dap]L[X19]W[Dab][Trp(1-CH2COOH)][NMeNle][NMeNle]L[dC]DD(X18)-OH; thioether N-14): the half-maximal inhibitory concentration (IC50) lay within 100 to 1600 nM.
Take `CCCC[C@H]1C(=O)N(C)[C@@H](CCCC)C(=O)N[C@@H](CC(C)C)C(=O)N[C@H](C(=O)NCC(=O)N[C@@H](CCC(=O)O)C(=O)NCCOCCOCCOCCOCCOCCOCCC(=O)NC[C@H](NC(=O)CCCCCCCCCCCCCCCCC(=O)O)C(=O)O)CSCC(=O)N[C@@H](Cc2ccc(O)cc2)C(=O)N(C)[C@@H](C)C(=O)N[C@@H](CC(N)=O)C(=O)N2CCC[C@H]2C(=O)N[C@@H](CN)C(=O)N[C@@H](CC(C)C)C(=O)N2C[C@H](O)CC2C(=O)N[C@@H](Cc2c[nH]c3ccccc23)C(=O)N[C@@H](CCN)C(=O)N[C@@H](Cc2cn(CC(=O)O)c3ccccc23)C(=O)N1C` (stereo partly drawn) [Example 11182] ({CH2CO}-Y[NMeA]NP[Dap]L[ξPro(4R-OH)]W[Dab][Trp(1-CH2COOH)][NMeNle][NMeNle]LCGE[PEG6]-{Dap(Nα-HOOC(CH2)16CO)OH}; thioether N-14): the half-inhibitory concentration (IC50) is 100 to 1600 nM.
With `C#CC[C@H](NC(=O)[C@@H]1CSCC(=O)N[C@@H](Cc2ccc(O)cc2)C(=O)N(C)[C@@H](C)C(=O)N[C@@H](CC(N)=O)C(=O)N2CCC[C@H]2C(=O)N[C@@H](CN)C(=O)N[C@@H](CC(C)C)C(=O)N2C[C@H](O)C[C@H]2C(=O)N[C@@H](Cc2c[nH]c3ccccc23)C(=O)N[C@@H](CCN)C(=O)N[C@@H](Cc2cn(CC(=O)O)c3ccccc23)C(=O)N(C)[C@@H](CCCC)C(=O)N(C)[C@@H](CCCC)C(=O)N[C@@H](CCC(=O)O)C(=O)N1)C(=O)O` [INT130AG] ({CH2CO}-Y[NMeA]NP[Dap]L[Hyp]W[Dab][Trp(1-CH2COOH)][NMeNle][NMeNle]EC[Pra]-OH; thioether N-14), the IC50 lay within 0.3 to 9.9 nM.
Then `CCCC[C@H]1C(=O)N(C)[C@@H](CCCC)C(=O)N[C@@H](CC(C)C)C(=O)N[C@H](C(=O)NCCOCCOCCOCC(=O)NCCCCCCCCCCC(=O)O)CSCC(=O)N[C@@H](Cc2ccc(O)cc2)C(=O)N(C)[C@@H](C)C(=O)N[C@@H](CC(N)=O)C(=O)N2CCC[C@H]2C(=O)N[C@@H](CO)C(=O)N[C@@H](CCC(N)=O)C(=O)N2C[C@H](O)C[C@H]2C(=O)N[C@@H](Cc2c[nH]c3ccccc23)C(=O)N[C@@H](CO)C(=O)N[C@@H](Cc2cn(CC(=O)O)c3ccccc23)C(=O)N1C` [Example 11085] ({CH2CO}-Y[NMeA]NPSQ[Hyp]WS[Trp(1-CH2COOH)][NMeNle][NMeNle]LC[AEEEA][Aun]-OH; thioether N-14), with 10 to 99 nM.

These data come from patent US10633419B2, “Immunomodulators” (BRISTOL-MYERS SQUIBB COMPANY, priority 2014, dated 2020).
